Laboratory results: US20190224166A1, “Compositions and Methods for Treating Muscle Loss” (Augusta University Research Institute, Inc., priority 2018, published 2019)

Test system: quadriceps muscle
Assay: Proteomic analysis of quadriceps muscle of aged mice treated with 1-methyl-D-tryptophan (Table 1, TOPPGENE enrichment)
Format: in vivo
Procedure: Female mice 22 months of age were obtained from the National Institute on Aging and treated with saline (vehicle) or 1-methyl-D-tryptophan (1-MT, Sigma, 452483, lot#MKBZ1441V) at a low dose (10 mg/kg BW) or at a high dose (100 mg/kg BW). Mice were treated daily for 4 weeks. Treatments were administered i.p. with an injection volume of 0.2 ml following IACUC approved procedures. Mice were euthanized by CO2 overdose and muscles harvested for analysis. One quadriceps muscle was snap frozen for proteomics and the other quadriceps muscle fixed in buffered formalin for paraffin embedding and trichrome staining. The tibialis anterior was placed in PBS for amplex red assay.
The IDO inhibitor, 1-methyl-D-tryptophan, blocks kynurenine production and reduces levels of ROS in muscle.

## Cn1cc(C[C@@H](N)C(=O)O)c2ccccc21 [1MT]
A2AN08, GN = Ubr4
  1MT vs Control: E3 ubiquitin-protein ligase UBR4: 0.5
E9PZQ0, GN = Ryr1
  1MT vs Control: Ryanodine receptor 1: 0.6614
O08528, GN = Hk2
  1MT vs Control: Hexokinase-2: 0.3158
O08709, GN = Prdx6
  1MT vs Control: Peroxiredoxin-6: 0.7083
O08749, GN = Dld
  1MT vs Control: Dihydrolipoyl dehydrogenase, mitochondrial: 0.8444
O09061, GN = Psmb1
  1MT vs Control: Proteasome subunit beta type-1: 0.5556
O09165, GN = Casq1
  1MT vs Control: Calsequestrin-1: 0.9036
O35855, GN = Bcat2
  1MT vs Control: Branched-chain-amino-acid aminotransferase, mitochondrial: 0.5
O54724, GN = Ptrf
  1MT vs Control: Polymerase I and transcript release factor: 0.9
O55126, GN = Gbas
  1MT vs Control: Protein NipSnap homolog 2: 0.5294
O70250, GN = Pgam2
  1MT vs Control: Phosphoglycerate mutase 2: 0.8457
O70578, GN = Cacng1
  1MT vs Control: Voltage-dependent calcium channel gamma-1 subunit: 0.75
O70622, GN = Rtn2
  1MT vs Control: Reticulon-2: 0.3
O88990, GN = Actn3
  1MT vs Control: Alpha-actinin-3: 0.8638
P01027, GN = C3
  1MT vs Control: Complement C3: 0.5294
P01942, GN = Hba
  1MT vs Control: Hemoglobin subunit alpha: 0.5714
P02088, GN = Hbb-b1
  1MT vs Control: Hemoglobin subunit beta-1: 0.688
P04247, GN = Mb
  1MT vs Control: Myoglobin: 0.381
P05201, GN = Got1
  1MT vs Control: Aspartate aminotransferase, cytoplasmic: 0.8115
P05202, GN = Got2
  1MT vs Control: Aspartate aminotransferase, mitochondrial: 0.6944
P05977, GN = Myl1
  1MT vs Control: Myosin light chain 1/3, skeletal muscle isoform: 0.7007
P06745, GN = Gpi
  1MT vs Control: Glucose-6-phosphate isomerase: 0.8424
P07724, GN = Alb
  1MT vs Control: Serum albumin: 0.8778
P07759, GN = Serpina3k
  1MT vs Control: Serine protease inhibitor A3K: 0.5238
P08249, GN = Mdh2
  1MT vs Control: Malate dehydrogenase, mitochondrial: 0.915
P09671, GN = Sod2
  1MT vs Control: Superoxide dismutase [Mn], mitochondrial: 0.45
P10630, GN = Eif4a2
  1MT vs Control: Eukaryotic initiation factor 4A-II: 0.6
P10639, GN = Txn
  1MT vs Control: Thioredoxin: 0.6154
P11404, GN = Fabp3
  1MT vs Control: Fatty acid-binding protein, heart: 0.6667
P11798, GN = Camk2a
  1MT vs Control: Calcium/calmodulin-dependent protein kinase type II subunit alpha: 0.4444
P12367, GN = Prkar2a
  1MT vs Control: cAMP-dependent protein kinase type II-alpha regulatory subunit: 0.8333
P14152, GN = Mdh1
  1MT vs Control: Malate dehydrogenase, cytoplasmic: 0.7895
P14602, GN = Hspb1
  1MT vs Control: Heat shock protein beta-1: 0.5385
P14824, GN = Anxa6
  1MT vs Control: Annexin A6: 0.7045
P17563, GN = Selenbp1
  1MT vs Control: Selenium-binding protein 1: 0.625
P18242, GN = Ctsd
  1MT vs Control: Cathepsin D: 0.8
P19157, GN = Gstp1
  1MT vs Control: Glutathione S-transferase P 1: 0.7436
P20108, GN = Prdx3
  1MT vs Control: Thioredoxin-dependent peroxide reductase, mitochondrial: 0.6875
P24527, GN = Lta4h
  1MT vs Control: Leukotriene A-4 hydrolase: 0.6667
P24549, GN = Aldh1a1
  1MT vs Control: Retinal dehydrogenase 1: 0.375
P26443, GN = Glud1
  1MT vs Control: Glutamate dehydrogenase 1, mitochondrial: 0.75
P26516, GN = Psmd7
  1MT vs Control: 26S proteasome non-ATPase regulatory subunit 7: 0.8333
P28650, GN = Adssl1
  1MT vs Control: Adenylosuccinate synthetase isozyme 1: 0.8583
P32848, GN = Pvalb
  1MT vs Control: Parvalbumin alpha: 0.7209
P35486, GN = Pdha1
  1MT vs Control: Pyruvate dehydrogenase E1 component subunit alpha, somatic form, mitochondrial: 0.5714
P35700, GN = Prdx1
  1MT vs Control: Peroxiredoxin-1: 0.9138
P38647, GN = Hspa9
  1MT vs Control: Stress-70 protein, mitochondrial: 0.4
P42125, GN = Eci1
  1MT vs Control: Enoyl-CoA delta isomerase 1, mitochondrial: 0.3333
P45952, GN = Acadm
  1MT vs Control: Medium-chain specific acyl-CoA dehydrogenase, mitochondrial: 0.75
P47934, GN = Crat
  1MT vs Control: Carnitine O-acetyltransferase: 0.3913
P48962, GN = Slc25a4
  1MT vs Control: ADP/ATP translocase 1: 0.4561
P51174, GN = Acadl
  1MT vs Control: Long-chain specific acyl-CoA dehydrogenase, mitochondrial: 0.3269
P54071, GN = Idh2
  1MT vs Control: Isocitrate dehydrogenase [NADP], mitochondrial: 0.3684
P54822, GN = Adsl
  1MT vs Control: Adenylosuccinate lyase: 0.5172
P55264, GN = Adk
  1MT vs Control: Adenosine kinase: 0.4545
P56480, GN = Atp5b
  1MT vs Control: ATP synthase subunit beta, mitochondrial: 0.6321
P57776, GN = Eef1d
  1MT vs Control: Elongation factor 1-delta: 0.8
P61982, GN = Ywhag
  1MT vs Control: 14-3-3 protein gamma: 0.5417
P62141, GN = Ppp1cb
  1MT vs Control: Serine/threonine-protein phosphatase PP1-beta catalytic subunit: 0.2857
P62897, GN = Cycs
  1MT vs Control: Cytochrome c, somatic: 0.7778
P62960, GN = Ybx1
  1MT vs Control: Nuclease-sensitive element-binding protein 1: 0.6
P62962, GN = Pfn1
  1MT vs Control: Profilin-1: 0.8333
P63038, GN = Hspd1
  1MT vs Control: 60 kDa heat shock protein, mitochondrial: 0.2222
P63242, GN = Eif5a
  1MT vs Control: Eukaryotic translation initiation factor 5A-1: 0.8936
P68040, GN = Gnb2l1
  1MT vs Control: Guanine nucleotide-binding protein subunit beta-2-like 1: 0.8889
P70349, GN = Hint1
  1MT vs Control: Histidine triad nucleotide-binding protein 1: 0.8667
P70404, GN = Idh3g
  1MT vs Control: Isocitrate dehydrogenase [NAD] subunit gamma 1, mitochondrial: 0.4286
P70695, GN = Fbp2
  1MT vs Control: Fructose-1,6-bisphosphatase isozyme 2: 0.6078
P97355, GN = Sms
  1MT vs Control: Spermine synthase: 0.5455
P97443, GN = Smyd1
  1MT vs Control: Histone-lysine N-methyltransferase Smyd1: 0.8143
P97457, GN = Mylpf
  1MT vs Control: Myosin regulatory light chain 2, skeletal muscle isoform: 0.6453
P97807, GN = Fh
  1MT vs Control: Fumarate hydratase, mitochondrial: 0.7414
P97823, GN = Lypla1
  1MT vs Control: Acyl-protein thioesterase 1: 0.5
P99027, GN = Rplp2
  1MT vs Control: 60S acidic ribosomal protein P2: 0.7143
Q1XH17, GN = Trim72
  1MT vs Control: Tripartite motif-containing protein 72: 0.9048
Q3TMH2, GN = Scrn3
  1MT vs Control: Secernin-3: 0.6667
Q3TMP8, GN = Tmem38a
  1MT vs Control: Trimeric intracellular cation channel type A: 0.6923
Q3V1D3, GN = Ampd1
  1MT vs Control: AMP deaminase 1: 0.86
Q6P5E4, GN = Uggt1
  1MT vs Control: UDP-glucose: glycoprotein glucosyltransferase 1: 0.2857
Q6P8J7, GN = Ckmt2
  1MT vs Control: Creatine kinase S-type, mitochondrial: 0.3977
Q6PIE5, GN = Atp1a2
  1MT vs Control: Sodium/potassium-transporting ATPase subunit alpha-2: 0.5143
Q8BH59, GN = Slc25a12
  1MT vs Control: Calcium-binding mitochondrial carrier protein Aralar1: 0.3939
Q8BH64, GN = Ehd2
  1MT vs Control: EH domain-containing protein 2: 0.5714
Q8BMF4, GN = Dlat
  1MT vs Control: Dihydrolipoyllysine-residue acetyltransferase component of pyruvate dehydrogenase complex, mitochondrial: 0.6053
Q8BMS1, GN = Hadha
  1MT vs Control: Trifunctional enzyme subunit alpha, mitochondrial: 0.561
Q8BU30, GN = Iars
  1MT vs Control: Isoleucine--tRNA ligase, cytoplasmic: 0.75
Q8BZA9, GN = Tigar
  1MT vs Control: Fructose-2,6-bisphosphatase TIGAR: 0.6944
Q8CI51, GN = Pdlim5
  1MT vs Control: PDZ and LIM domain protein 5: 0.6667
Q8K2B3, GN = Sdha
  1MT vs Control: Succinate dehydrogenase [ubiquinone] flavoprotein subunit, mitochondrial: 0.7037
Q8K010, GN = Oplah
  1MT vs Control: 5-oxoprolinase: 0.75
Q8QZT1, GN = Acat1
  1MT vs Control: Acetyl-CoA acetyltransferase, mitochondrial: 0.9231
Q8R429, GN = Atp2a1
  1MT vs Control: Sarcoplasmic/endoplasmic reticulum calcium ATPase 1: 0.9045
Q8VCT4, GN = Ces1d
  1MT vs Control: Carboxylesterase 1D: 0.8571
Q8VEM8, GN = Slc25a3
  1MT vs Control: Phosphate carrier protein, mitochondrial: 0.3333
Q8VHN7, GN = Gpr98
  1MT vs Control: G-protein coupled receptor 98: 0.6667
Q9CQ62, GN = Decr1
  1MT vs Control: 2,4-dienoyl-CoA reductase, mitochondrial: 0.375
Q9CWJ9, GN = Atic
  1MT vs Control: Bifunctional purine biosynthesis protein PURH: 0.8571
Q9CZ13, GN = Uqcrc1
  1MT vs Control: Cytochrome b-c1 complex subunit 1, mitochondrial: 0.25
Q9CZU6, GN = Cs
  1MT vs Control: Citrate synthase, mitochondrial: 0.5333
Q9D0K2, GN = Oxct1
  1MT vs Control: Succinyl-CoA: 3-ketoacid coenzyme A transferase 1, mitochondrial: 0.75
Q9D1A2, GN = Cndp2
  1MT vs Control: Cytosolic non-specific dipeptidase: 0.8
Q9D1G3, GN = Hhatl
  1MT vs Control: Protein-cysteine N-palmitoyltransferase HHAT-like protein: 0.4545
Q9D2G2, GN = Dlst
  1MT vs Control: Dihydrolipoyllysine-residue succinyltransferase component of 2-oxoglutarate dehydrogenase complex, mitochondrial: 0.4857
Q9D7G0, GN = Prps1
  1MT vs Control: Ribose-phosphate pyrophosphokinase 1: 0.8723
Q9D8E6, GN = Rpl4
  1MT vs Control: 60S ribosomal protein L4: 0.6667
Q9D051, GN = Pdhb
  1MT vs Control: Pyruvate dehydrogenase E1 component subunit beta, mitochondrial: 0.6279
Q9DAK9, GN = Phpt1
  1MT vs Control: 14 kDa phosphohistidine phosphatase: 0.75
Q9DB77, GN = Uqcrc2
  1MT vs Control: Cytochrome b-c1 complex subunit 2, mitochondrial: 0.3958
Q9DBB8, GN = Dhdh
  1MT vs Control: Trans-1,2-dihydrobenzene-1,2-diol dehydrogenase: 0.8333
Q9DCW4, GN = Etfb
  1MT vs Control: Electron transfer flavoprotein subunit beta: 0.5
Q9EQ20, GN = Aldh6a1
  1MT vs Control: Methylmalonate-semialdehyde dehydrogenase [acylating], mitochondrial: 0.65
Q9JMA1, GN = Usp14
  1MT vs Control: Ubiquitin carboxyl-terminal hydrolase 14: 0.8
Q9QUR6, GN = Prep
  1MT vs Control: Prolyl endopeptidase: 0.5
Q9QXS1, GN = Plec
  1MT vs Control: Plectin: 0.4894
Q9QY76, GN = Vapb
  1MT vs Control: Vesicle-associated membrane protein-associated protein B: 0.5333
Q9R0P3, GN = Esd
  1MT vs Control: S-formylglutathione hydrolase: 0.8929
Q9R1P4, GN = Psma1
  1MT vs Control: Proteasome subunit alpha type-1: 0.375
Q9WUB3, GN = Pygm
  1MT vs Control: Glycogen phosphorylase, muscle form: 0.9185
Q9Z1E4, GN = Gys1
  1MT vs Control: Glycogen [starch] synthase, muscle: 0.6275
Q9Z2I9, GN = Sucla2
  1MT vs Control: Succinyl-CoA ligase [ADP-forming] subunit beta, mitochondrial: 0.52
Q78ZA7, GN = Nap1l4
  1MT vs Control: Nucleosome assembly protein 1-like 4: 0.8571
Q91X72, GN = Hpx
  1MT vs Control: Hemopexin: 0.7391
Q91YT0, GN = Ndufv1
  1MT vs Control: NADH dehydrogenase [ubiquinone] flavoprotein 1, mitochondrial: 0.4
